In ChEMBL document CHEMBL1857833, “Screening and optimization of specific chemical series against human African Trypanosomiasis (HAT)”:
In brackets after ≈: the same amount, converted by molar mass.

How the values were obtained:
[1] = DNDI: Cytotoxicity against L929 mouse fibroblasts, 72 hour.; format: toxicity, cell-based; details: mouse, L929 mouse fibroblasts
Trypanosoma brucei = test: DNDI: Inhibition of Human African Trypanosomiasis, SBRI 427, in vitro; format: functional, organism-based; details: Trypanosoma brucei, SBRI 427; read-out: IC50

Structure (SMILES) | IC50 (Trypanosoma brucei) [µg/mL] | IC50 at 72 h [1] [µg/mL]
O=c1cc(-c2ccccc2)[nH]c2cc(-c3ccc(F)cc3)nn12 | > 5 | 10 (≈ 32.8 µM)
N#Cc1nc(-c2ccccc2)oc1N | > 5 | > 10
Cc1ccc(CNC(c2nc(Cc3ccccc3)c(N3CCOCC3)o2)C2CC2)cc1 (stereo not given) | > 5 | > 10
COc1ccccc1CNC(c1ccccc1)c1nc(-c2ccccc2)c(N2CCOCC2)o1 (stereo not given) | > 5 | > 10
Fc1ccc(-c2cc3nc(-c4ccccc4)cc(NCCCn4ccnc4)n3n2)cc1 | 4.04 (≈ 9.79 µM) | 7.66 (≈ 18.6 µM)
c1ccc(-c2nc(C(NCCCn3ccnc3)C3CC3)oc2N2CCOCC2)cc1 (stereo not given) | > 5 | > 10
c1ccc(Cc2nc(C(NCc3ccco3)C3CC3)oc2N2CCOCC2)cc1 (stereo not given) | > 5 | > 10
O=C(NCC1C(O)=C(C(=O)c2ccccc2)C(=O)N1C(=O)OCc1ccccc1)OCc1ccccc1 (stereo not given) | > 5 | 9.13 (≈ 18.2 µM)
C/C(O)=C1\C(=O)NC(COCc2ccccc2)C1=O (stereo not given) | > 5 | > 10
Cc1ccc(CNC(c2nc(Cc3ccccc3)c(N3CCOCC3)o2)c2ccccc2C)cc1 (stereo not given) | > 5 | > 10
CCOCCCNC(c1nc(C(C)C)c(N2CCOCC2)o1)C1CC1 (stereo not given) | > 5 | > 10
C/C(O)=C1/C(=O)CN(C)C1=O | > 5 | > 10
Cc1ccc(CNC(CC(C)C)c2nc(-c3ccccc3)c(N3CCOCC3)o2)cc1 (stereo not given) | 4.22 (≈ 10.1 µM) | > 10
NCCCNc1cc(-c2ccccc2)nc2cc(-c3ccc(F)cc3)nn12 | 0.554 (≈ 1.53 µM) | 0.76 (≈ 2.1 µM)
Cc1ccc(CNC(c2nc(-c3ccccc3)c(N3CCOCC3)o2)C2CC2)cc1 (stereo not given) | > 5 | > 10
COc1ccc(CNC(CC(C)C)c2nc(C(C)C)c(N3CCOCC3)o2)cc1 (stereo not given) | > 5 | > 10
c1ccc(-c2nc(C(NCc3ccco3)C3CC3)oc2N2CCOCC2)cc1 (stereo not given) | > 5 | > 10
CCCCCCC/C(O)=C1\C(=O)NC(CC(C)C)C1=O (stereo not given) | > 5 | > 10
c1ccc(Cc2nc(C(NCc3ccc4c(c3)OCO4)C3CC3)oc2N2CCOCC2)cc1 (stereo not given) | > 5 | > 10
CCCCCCC/C(O)=C1/C(=O)CN(C)C1=O | > 5 | > 10
COC(=O)c1sccc1NC(N)=O | > 5 | > 10
CCCCCC(C)NCc1coc(-c2cc(C(F)(F)F)cc(C(F)(F)F)c2)n1 (stereo not given) | 2.06 (≈ 5.04 µM) | > 10
CCCCc1ccc(-c2nc3ncccc3o2)cc1 | > 5 | > 10
O=C1CC(=O)N(C(=O)OCc2ccccc2)C1COCc1ccccc1 (stereo not given) | > 5 | > 10
O=c1[nH]c(=O)c2sccc2[nH]1 | > 5 | > 10
CN(C)CCCNc1cc(-c2ccccc2)nc2cc(-c3ccc(F)cc3)nn12 | 1.1 (≈ 2.82 µM) | 2.57 (≈ 6.6 µM)
O=C(OC1=CC(=O)N(C(=O)OCc2ccccc2)C1COCc1ccccc1)c1ccccc1 (stereo not given) | > 5 | > 10

Structure (SMILES) | IC50 (Trypanosoma brucei) [µg/mL] | IC50 at 72 h [1] [µg/mL]
Fc1ccc(-c2cc3nc(-c4ccccc4)cc(NCCCN4CCOCC4)n3n2)cc1 | > 5 | > 10
Fc1ccc(-c2cc3nc(-c4ccccc4)cc(NCCCN4CCCC4)n3n2)cc1 | 3.65 (≈ 8.78 µM) | 6.92 (≈ 16.7 µM)
Fc1ccc(-c2cc3nc(-c4ccccc4)cc(NCCN4CCOCC4)n3n2)cc1 | > 5 | > 10
CC(C)CC(NCc1ccc(Cl)c(Cl)c1)c1nc(-c2ccccc2)c(N2CCOCC2)o1 (stereo not given) | 4.46 (≈ 9.4 µM) | > 10
COc1cccc(-c2nc(CNCCC3CCCN3C)c(C)o2)c1 (stereo not given) | 2.2 (≈ 6.68 µM) | > 10
Cc1ccc(CNC(c2cccc(Cl)c2)c2nc(Cc3ccccc3)c(N3CCOCC3)o2)cc1 (stereo not given) | > 5 | > 10
Fc1ccc(-c2cc3nc(-c4ccccc4)cc(NCCN4CCCC4)n3n2)cc1 | 1.68 (≈ 4.18 µM) | 4.94 (≈ 12.3 µM)
CCOCCCNC(CC(C)C)c1nc(-c2ccccc2)c(N2CCOCC2)o1 (stereo not given) | > 5 | > 10
Nc1oc(-c2ccccc2)nc1C(=O)c1ccc(-c2ccccc2)cc1 | > 5 | 5.23 (≈ 15.4 µM)
CC(C)CC(NCc1ccc(C(F)(F)F)cc1)c1nc(-c2ccccc2)c(N2CCOCC2)o1 (stereo not given) | 2.58 (≈ 5.45 µM) | > 10
Cc1oc(-c2ccccc2F)nc1CNCCC1CCCN1C (stereo not given) | > 5 | > 10
CC(C)CC(NCCc1ccc(S(N)(=O)=O)cc1)c1nc(C(C)C)c(N2CCOCC2)o1 (stereo not given) | > 5 | > 10
COc1ccccc1C(=O)c1nc(-c2ccccc2)oc1N | > 5 | > 10
CCCCCC(C)NCc1nc(-c2cccc(OC)c2)oc1C (stereo not given) | 1.54 (≈ 4.87 µM) | > 10
Cc1ccc(CNC(CC(C)C)c2nc(C(C)C)c(N3CCOCC3)o2)cc1 (stereo not given) | > 5 | > 10
CCCCCC(C)NCc1nc(-c2cccc(C)c2)oc1C (stereo not given) | 2.16 (≈ 7.19 µM) | > 10
CN(C)CC(C)(C)CNc1cc(-c2ccccc2)nc2cc(-c3cccc(F)c3)nn12 | > 5 | > 10
CCCCCC(C)NCc1nc(-c2ccccc2F)oc1C (stereo not given) | 2.71 (≈ 8.9 µM) | 8.59 (≈ 28.2 µM)
CCCCCC(C)NCc1coc(C2CCCCC2)n1 (stereo not given) | 2.54 (≈ 9.12 µM) | 10 (≈ 35.9 µM)
COc1ccc(-c2nc(CNCCC3CCCN3C)c(C)o2)cc1 (stereo not given) | 2.44 (≈ 7.41 µM) | > 10
NCCCNc1cc(-c2ccccc2)nc2cc(-c3cccc(F)c3)nn12 | 0.535 (≈ 1.48 µM) | 1.57 (≈ 4.34 µM)
Fc1ccc(-c2cc3nc(-c4ccccc4)cc(NCCN4CCCCC4)n3n2)cc1 | > 5 | > 10
C/C(O)=C1\C(=O)NC(CC(C)C)C1=O (stereo not given) | > 5 | > 10
CCOCCCNC(c1nc(Cc2ccccc2)c(N2CCOCC2)o1)C1CC1 (stereo not given) | > 5 | > 10
C#[N+]C(C(=O)N1CCOCC1)c1ccccc1 (stereo not given) | > 5 | > 10
C#[N+]C(C(=O)N1CCOCC1)C(C)C (stereo not given) | > 5 | > 10

Now from value to molecule, other results behind:

IC50 (Trypanosoma brucei) [µg/mL] | Structure (SMILES) | IC50 at 72 h [1] [µg/mL]
> 5 | CCCCc1ccc(-c2nc(Nc3ccccn3)co2)cc1 | > 10
> 5 | CCC(C)Oc1ccc(-c2nc(CNCCCN(C)C)co2)cc1 (stereo not given) | > 10
0.1 (≈ 0.291 µM) | CCCCc1ccc(-c2nc(CNCCCN(CC)CC)co2)cc1 | 0.89 (≈ 2.59 µM)
2.46 (≈ 7.62 µM) | CCCCCC(C)NCc1coc(-c2cc(Cl)ccc2O)n1 (stereo not given) | 2.33 (≈ 7.22 µM)
3.61 (≈ 11.4 µM) | CCCCCC(C)NCc1coc(-c2ccc3c(c2)OCO3)n1 (stereo not given) | 10 (≈ 31.6 µM)
> 5 | CN(C)CCCNCc1coc(-c2ccc(OC3CCCC3)cc2)n1 | > 10
> 5 | CCC(CC)Oc1ccc(-c2nc(CNCCCN(C)C)co2)cc1 | > 10
> 5 | CC(C)COc1ccc(-c2nc(CNCCCN(C)C)co2)cc1 | > 10
1.02 (≈ 2.96 µM) | CCCCCC(C)NCc1coc(-c2cccc(OCCCC)c2)n1 (stereo not given) | 1.7 (≈ 4.93 µM)
2.32 (≈ 7.02 µM) | CCCCCC(C)NCc1coc(-c2cc(C(C)=O)ccc2O)n1 (stereo not given) | 3.47 (≈ 10.5 µM)
0.34 (≈ 0.951 µM) | CCCCc1ccc(-c2nc(CNCCCN3CCOCC3)co2)cc1 | 2.08 (≈ 5.82 µM)
0.38 (≈ 1.01 µM) | CCCCCC(C)NCc1coc(-c2ccc(OCCCC)c(OC)c2)n1 (stereo not given) | 1.48 (≈ 3.95 µM)
2.15 (≈ 6.35 µM) | CCCCCC(C)NCc1coc(-c2ccc(OC(F)F)cc2)n1 (stereo not given) | 3.82 (≈ 11.3 µM)
1.42 (≈ 3.66 µM) | CCCCCC(C)NCc1coc(-c2ccc(OC(F)(F)C(F)F)cc2)n1 (stereo not given) | 4.3 (≈ 11.1 µM)
2.88 (≈ 7.53 µM) | COc1cccc(OC)c1CNCc1coc(-c2ccc(OC(C)C)cc2)n1 | 4.15 (≈ 10.9 µM)
> 5 | CCCCc1ccc(-c2nc(CN3CCN(C(=O)OC(C)(C)C)CC3)co2)cc1 | > 10
0.38 (≈ 0.958 µM) | CCCCCC(C)NCc1coc(-c2ccc(OCc3ccc(F)cc3)cc2)n1 (stereo not given) | 0.95 (≈ 2.4 µM)
3.76 (≈ 12.6 µM) | CCCCCC(C)NCc1coc(-c2ccccc2C#N)n1 (stereo not given) | > 10
0.74 (≈ 2.46 µM) | CCCCCC(C)NCc1coc(-c2ccc(C)c(C)c2)n1 (stereo not given) | 1.86 (≈ 6.19 µM)

IC50 (Trypanosoma brucei) [µg/mL] | Structure (SMILES) | IC50 at 72 h [1] [µg/mL]
> 5 | CCCCc1ccc(-c2nc(Nc3cccnc3)co2)cc1 | 6.24 (≈ 21.3 µM)
> 5 | CCCCc1ccc(-c2nc(CN3C(=O)c4ccccc4C3=O)co2)cc1 | > 10
0.16 (≈ 0.396 µM) | CCCCc1ccc(-c2nc(CNC3CCN(Cc4ccccc4)CC3)co2)cc1 | 0.96 (≈ 2.38 µM)
1.41 (≈ 4.69 µM) | CCCCCC(C)NCc1nc(-c2ccc(C)cc2)oc1C (stereo not given) | > 10
1.49 (≈ 4.71 µM) | CCCCCC(C)NCc1nc(-c2ccc(OC)cc2)oc1C (stereo not given) | > 10
0.41 (≈ 0.916 µM) | CCCCCC(C)NCc1coc(-c2ccc(OCc3ccc(Cl)c(Cl)c3)cc2)n1 (stereo not given) | 1.9 (≈ 4.25 µM)
0.74 (≈ 1.91 µM) | CCCCc1ccc(-c2nc(CNCCCNC(=O)OC(C)(C)C)co2)cc1 | 1.47 (≈ 3.79 µM)
0.42 (≈ 1.17 µM) | CCCCCC(C)NCc1coc(-c2ccc(OCCCC)c(C)c2)n1 (stereo not given) | 1.37 (≈ 3.82 µM)
3.13 (≈ 10.3 µM) | COc1ccc(-c2nc(CNCCCN(C)C)c(C)o2)cc1 | > 10
0.9 (≈ 2.64 µM) | CCCCCC(C)NCc1coc(-c2ccc(Cl)cc2Cl)n1 (stereo not given) | 3.47 (≈ 10.2 µM)
0.3 (≈ 0.886 µM) | CCCCc1ccc(-c2nc(CNCCCn3ccnc3)co2)cc1 | 0.66 (≈ 1.95 µM)
0.9 (≈ 2.84 µM) | CCCCOc1ccc(-c2nc(CNCC(C)(C)C)co2)cc1 | 1.8 (≈ 5.69 µM)
> 5 | CCCCc1ccc(-c2nc(CN)co2)cc1 | > 10
> 5 | CN(C)CCCNCc1coc(-c2ccc(OCCc3ccccc3)cc2)n1 | > 10
> 5 | CC(C)c1ccc(-c2nc(CNCCCN(C)C)co2)cc1 | > 10
0.37 (≈ 1.14 µM) | CCCCc1ccc(-c2nc(CNCCc3cnc[nH]3)co2)cc1 | 2.43 (≈ 7.49 µM)
1.09 (≈ 3.18 µM) | CCCCCc1ccc(-c2nc(CNC(C)CCCCC)co2)cc1 (stereo not given) | 1.01 (≈ 2.95 µM)
2.04 (≈ 5.98 µM) | CCCCCC(C)NCc1coc(-c2c(Cl)cccc2Cl)n1 (stereo not given) | 5.76 (≈ 16.9 µM)
